Patent US20110105397A1, “METHOD FOR TREATING HEART FAILURE WITH STRESSCOPIN-LIKE PEPTIDES” (priority 2009, published 2011)

Legend:
[1] = Nonclinical pharmacokinetics in cynomolgus monkeys; settings: cynomolgus monkey, in vivo
Experimental: (§1) A sandwich immunoassay was developed using an affinity purified goat polyclonal antibody, specific to h-SCP that was pre-coated onto a microplate with integrated electrodes. h-SCP molecules present in the sample will bind to the capture polyclonal antibody coated on the plate. After washing away any unbound substances, a sulfo-tagged mouse monoclonal anti-h-SCP antibody was added. This conjugated antibody will bind to the h-SCP molecules captured on the microplate and the quantity of analyte was determined by electrochemiluminescence. The amount of signal generated is directly proportional to the h-SCP concentration in the sample or standard. The standard curve range is 3.125-1600 pg/mL with a quantifiable range from 10-800 pg/mL. A sample volume of 25 μL (in duplicate) is required for this assay. This immunoassay is specific for human and dog stresscopin and human urocortin III (h-UCN3). […] After completion of the analysis, based on a comparison of reference standards between the ELISA and HPLC method, a correction factor of 1.57 was applied to all bioanalytical data.
(§2) The nonclinical pharmacokinetics of h-SCP (SEQ ID NO:1) and pegylated stresscopin-like peptides were studied in rats, dogs, and cynomolgus monkeys (cyno). Nonclinical pharmacokinetic studies focused on characterization of IV infusion at pharmacologically relevant dose levels, supplemented with IV and SC bolus and toxicokinetic analysis.

[2] = Nonclinical pharmacokinetics in dogs; design: species or system dog; settings: in vivo; for Cmax: read-out: Cmax
Experimental: as §1, §2

[3] = system: anaesthetized mongrel dogs; experiment: Hemodynamic, angiographic, echocardiographic profile in anaesthetized healthy dogs, IV bolus; format: in vivo, dog
Experimental: The effects of h-SCP (SEQ ID NO: 1) on cardiovascular function were also assessed in anaesthetized mongrel dogs following intravenous bolus and 30-minute infusions. Hemodynamic and left ventricular systolic and diastolic function was evaluated using conventional hemodynamic, angiographic, echocardiographic, and radiographic methods with the results summarized in Table 16.

healthy subjects = experiment: Human hemodynamics, healthy subjects, 24- and 72-hour continuous IV infusion, 54 ng/kg/min; format: in vivo
Experimental: Efficacy was based on the pharmacodynamic evaluation of hemodynamics, which was monitored using the noninvasive technique of impedance cardiography. Heart rate values were collected by impedance cardiography measurements. It was noted that the heart rate of subjects receiving placebo were elevated on the day of their infusions, at baseline before the infusion, and for the first 3 to 4 hours after the infusions were started (FIG. 17). Based on this observation, it appeared that there was a potential effect of period on the observed heart rate.
Healthy subjects who received placebo had heart rates that decreased compared with baseline during the infusion.

[4] = female, cyno IV infusion 3 hours, F, 16.7 ng/kg/min
[5] = female, cyno IV infusion 3 hours, F, 33.3 ng/kg/min
[6] = female, cyno IV infusion 3 hours, F, 100 ng/kg/min
[7] = male, cyno IV infusion 3 hours, M, 16.7 ng/kg/min
[8] = male, cyno IV infusion 3 hours, M, 33.3 ng/kg/min
[9] = male, cyno IV infusion 3 hours, M, 100 ng/kg/min
[10] = male, dog IV infusion 3 hours, M, 3.33 ng/kg/min
[11] = male, dog IV infusion 3 hours, M, 8.33 ng/kg/min
[12] = male, dog IV infusion 3 hours, M, 16.7 ng/kg/min
[13] = male, dog IV infusion 3 hours, M, 33.3 ng/kg/min

## H-TKFTLSLDVPTNIMNLLFNIAKAKNLRAQAAANAHLMAQI-NH2 [SEQ ID NO: 1, TKFTLSLDVPTNIMNLLFNIAKAKNLRAQAAANAHLMAQI-NH2]
[1]; iv
  time to apparent steady-state plasma concentration after initiation of infusion: ≤ 1 h
[1]; monkeys, two-compartment analysis, read-out: alpha-phase half-life (t1/2 alpha)
  half-life: < 5 min
[1]; cynomolgus monkeys, 16.7 to 100 ng/kg/min, read-out: clearance values (CL)
  clearance: 30 to 40 mL/min/kg
[1]; female, iv
  Vss: 0.921 L/kg
[1]; female, iv, 33.3 ng/kg/min, cyno IV infusion 3 hours, F, 33.3 ng/kg/min, read-out: t1/2 alpha
  half-life: 4 min
[1]; female, iv, 33.3 ng/kg/min, cyno IV infusion 3 hours, F, 33.3 ng/kg/min, read-out: t1/2 terminal
  half-life: 14.8 min
[1]; female, iv, Vss
  Vd: 0.848 L/kg
[1]; female, iv, t1/2 alpha
  half-life: 3.1 min
[1]; [4]
  AUC(0-inf): 1.31 ng·h/mL
  Cmax: 0.613 ng/mL
[1]; female, cyno IV infusion 3 hours, F, 16.7 ng/kg/min, read-out: CL
  clearance: 39.7 mL/min/kg
[1]; [5]
  AUC(0-inf): 2.34 ng·h/mL
  Cmax: 0.958 ng/mL
[1]; female, cyno IV infusion 3 hours, F, 33.3 ng/kg/min, read-out: CL
  clearance: 42.9 mL/min/kg
[1]; female, cyno IV infusion 3 hours, F, 33.3 ng/kg/min, read-out: Vss
  Vd: 0.931 L/kg
[1]; [6]
  AUC(0-inf): 7.67 ng·h/mL
  Cmax: 3.16 ng/mL
[1]; female, cyno IV infusion 3 hours, F, 100 ng/kg/min, read-out: CL
  clearance: 39.1 mL/min/kg
[1]; male, iv
  Vss: 0.899 L/kg
[1]; male, iv, 33.3 ng/kg/min, cyno IV infusion 3 hours, M, 33.3 ng/kg/min, read-out: t1/2 alpha
  half-life: 3.7 min
[1]; male, iv, 33.3 ng/kg/min, cyno IV infusion 3 hours, M, 33.3 ng/kg/min, read-out: t1/2 terminal
  half-life: 26 min
[1]; male, iv, Vss
  Vd: 0.788 L/kg
[1]; male, iv, t1/2 alpha
  half-life: 2.9 min
[1]; [7]
  AUC(0-inf): 1.73 ng·h/mL
  Cmax: 0.873 ng/mL
[1]; male, cyno IV infusion 3 hours, M, 16.7 ng/kg/min, read-out: CL
  clearance: 30.2 mL/min/kg
[1]; [8]
  AUC(0-inf): 3.47 ng·h/mL
  Cmax: 1.48 ng/mL
[1]; male, cyno IV infusion 3 hours, M, 33.3 ng/kg/min, read-out: CL
  clearance: 29.2 mL/min/kg
[1]; male, cyno IV infusion 3 hours, M, 33.3 ng/kg/min, read-out: Vss
  Vd: 0.611 L/kg
[1]; [9]
  AUC(0-inf): 9.79 ng·h/mL
  Cmax: 4.45 ng/mL
[1]; male, cyno IV infusion 3 hours, M, 100 ng/kg/min, read-out: CL
  clearance: 30.7 mL/min/kg
[2]; dog, dogs, two-compartment analysis, read-out: alpha-phase half-life (t1/2 alpha)
  half-life: 10 to 20 min
[2]; dog, dogs, read-out: terminal phase half-life (converted)
  half-life: ~60 min
[2]; dog, iv
  time to apparent steady-state plasma concentration after initiation of infusion: ≤ 1 h
[2]; dog, dogs, 3.3 to 33.3 ng/kg/min, read-out: plasma clearance
  clearance: ~4 mL/min/kg
[2]; male, dog, iv, 33.3 ng/kg/min, dog IV infusion 3 hours, M, 33.3 ng/kg/min, read-out: t1/2 alpha
  half-life: 13.7 min
[2]; male, dog, iv, 33.3 ng/kg/min, dog IV infusion 3 hours, M, 33.3 ng/kg/min, read-out: t1/2 terminal
  half-life: 65.3 min
[2]; male, dog, iv, Vss
  Vd: 0.216 L/kg
[2]; male, dog, iv, t1/2 alpha
  half-life: 15.9 min
[2]; male, dog, iv, t1/2 terminal
  half-life: 59.6 min
[2]; [10]
  AUC(0-inf): 2.34 ng·h/mL
  Cmax: 0.814 ng/mL
[2]; male, dog IV infusion 3 hours, M, 3.33 ng/kg/min, read-out: CL
  clearance: 4.28 mL/min/kg
[2]; [11]
  AUC(0-inf): 6.46 ng·h/mL
  Cmax: 2.38 ng/mL
[2]; male, dog IV infusion 3 hours, M, 8.33 ng/kg/min, read-out: CL
  clearance: 3.87 mL/min/kg
[2]; [12]
  AUC(0-inf): 12.8 ng·h/mL
  Cmax: 5.05 ng/mL
[2]; male, dog IV infusion 3 hours, M, 16.7 ng/kg/min, read-out: CL
  clearance: 3.99 mL/min/kg
[2]; [13]
  AUC(0-inf): 26.4 ng·h/mL
  Cmax: 10 ng/mL
[2]; male, dog IV infusion 3 hours, M, 33.3 ng/kg/min, read-out: CL
  clearance: 3.95 mL/min/kg
[2]; male, dog IV infusion 3 hours, M, 33.3 ng/kg/min, read-out: Vss
  Vd: 0.161 L/kg
[3]; IV bolus 0.13 μg/kg
  CO (Cardiac output): 2.19 L/min
  HR (Heart rate): 73 beats/min
  LV dP/dt (LV contractility): 1546 mmHg/sec
  LVEDA (LV end diastolic area): 12.9 cm^2
  LVEDV (LV end diastolic volume): 55 mL
  LVEF (LV ejection fraction): 55%
  LVESA (LV end systolic area): 6.9 cm^2
  LVESV (LV end systolic volume): 25 mL
  LVFAS (LV fractional area of shortening): 46%
  PSAP (Peak systolic aortic pressure): 92 mmHg
  SV (Stroke volume): 30 mL
[3]; IV bolus 0.13 μg/kg to 13.1 μg/kg
  increase in heart rate (largest change): 45%
[3]; IV bolus 1.3 μg/kg
  CO (Cardiac output): 2.56 L/min
  HR (Heart rate): 85 beats/min
  LV dP/dt (LV contractility): 1606 mmHg/sec
  LVEDA (LV end diastolic area): 12.7 cm^2
  LVEDV (LV end diastolic volume): 54 mL
  LVEF (LV ejection fraction): 57%
  LVESA (LV end systolic area): 6.5 cm^2
  LVESV (LV end systolic volume): 23 mL
  LVFAS (LV fractional area of shortening): 49%
  PSAP (Peak systolic aortic pressure): 91 mmHg
  SV (Stroke volume): 30 mL
[3]; IV bolus 2.6 μg/kg
  CO (Cardiac output): 2.72 L/min
  HR (Heart rate): 92 beats/min
  LV dP/dt (LV contractility): 1675 mmHg/sec
  LVEDA (LV end diastolic area): 12.5 cm^2
  LVEDV (LV end diastolic volume): 52 mL
  LVEF (LV ejection fraction): 57%
  LVESA (LV end systolic area): 6.2 cm^2
  LVESV (LV end systolic volume): 22 mL
  LVFAS (LV fractional area of shortening): 50%
  PSAP (Peak systolic aortic pressure): 90 mmHg
  SV (Stroke volume): 30 mL
[3]; IV bolus 4.4 μg/kg
  CO (Cardiac output): 2.80 L/min
  HR (Heart rate): 94 beats/min
  LV dP/dt (LV contractility): 1682 mmHg/sec
  LVEDA (LV end diastolic area): 12.4 cm^2
  LVEDV (LV end diastolic volume): 51 mL
  LVEF (LV ejection fraction): 58%
  LVESA (LV end systolic area): 6.0 cm^2
  LVESV (LV end systolic volume): 22 mL
  LVFAS (LV fractional area of shortening): 52%
  PSAP (Peak systolic aortic pressure): 90 mmHg
  SV (Stroke volume): 30 mL
[3]; IV bolus 13.1 μg/kg
  CO (Cardiac output): 2.86 L/min
  HR (Heart rate): 107 beats/min
  LV dP/dt (LV contractility): 1760 mmHg/sec
  LVEDA (LV end diastolic area): 11.4 cm^2
  LVEDV (LV end diastolic volume): 46 mL
  LVEF (LV ejection fraction): 60%
  LVESA (LV end systolic area): 5.2 cm^2
  LVESV (LV end systolic volume): 18 mL
  LVFAS (LV fractional area of shortening): 53%
  PSAP (Peak systolic aortic pressure): 88 mmHg
  SV (Stroke volume): 28 mL
Healthy subjects
  time in which the increase in heart rate occurred: ≤ 15 min
